Here are results for two substances from patent publication US20230090884A1, “DEVICE AND METHODS FOR ISOLATING EXTRACELLULAR MATRIX BODIES” (AUFBAU MEDICAL INNOVATIONS LIMITED, priority 2020, published 2023).

This test in a line: Dose-response in microfluidic chip device: change in chip pressure (intraocular pressure model) after treatment of bovine vitreous humor. As to conditions: 12.5% homogenized BVH in PBS incubated with compound at 37° C. for 1 hour; 7 ul injected; relative change in chip pressure recorded for 50 min; half-maximal response; read-out: EC50 for treatment of bovine vitreous humor (glaucoma model). As for the experimental part:
The compound bivalirudin TFA was tested in bovine vitreous humor (BVH) in a microfluidic chip device. A solution of 25% homogenized BVH in PBS buffer was prepared and diluted with an equal amount of a solution of the compound, so that the total BVH concentration was 12.5%. The sample was vortexed and incubated at 37° C. for 1 hour. A control of either PBS buffer or PBS with 10% ethanol or DMSO was used and incubated with BVH under the same conditions.
The test compound-BVH solution was introduced into the reservoir of the microfluidic chip device and flow rate and pressure change were recorded. Various concentrations of the compound were tested for effects on the treatment of bovine vitreous humor. 7 ul of each test solution was injected into the microfluidic chip through a sample injector. Recording of the flow rate and pressure change was continued for 50 additional minutes after the sample injection. The relative change in chip pressure for the entire course of the experiment was obtained.
The EC50 value was taken as the point on the x-axis at which the logarithmic function of the micromolar concentration of the compound produced half-maximal response. […] The response was calculated by taking the absolute difference between the control and test value for each concentration. […]

Turning to bivalirudin TFA, the EC50 came to 1.2 nM.

On to polymyxin B sulfate, for which the 50% effective concentration (EC50) came out at 4.3 nM.

The EC50 is the concentration that produces a half-maximal response.
